Test systems include 786-0; CAKI-1; DLD-1; DMS-273; DU-145; EKVX; HCT-116; Hs-578T; KM-20L2; LXFL 529; M19-MEL; MDA-MB-435; MDA-N; NCI/ADR-RES; OVCAR-4; PC-3; SR; T47D; UACC-257; XF498.
Common to all, as to assay: DTP human tumour cell line panel, 48 h

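Step 1: Grow cells in 96-well plates. Step 2: Expose to compound for 48 hours at 5 concentrations. Step 3: Interpolate endpoints linearly; if unreached, use highest concentration. GI50 marks 50% less growth.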 Calls of active or inactive are those of the source. Rule as the data show it: active = GI50 up to about 1.1 µM and inactive = higher.

As for `COc1nc(N)nc2nc[nH]c12`, the GI50 was 489 µM (inactive) with 786-0; 162 µM (inactive) in the test with CAKI-1; 385 µM (inactive) with DLD-1; 430 µM (inactive) in the test with DMS-273; 478 µM (inactive) in the test with DU-145; > 387 µM (inactive) in the test on EKVX. For the same compound, the GI50 in the test with HCT-116 was 463 µM (inactive); in the test on Hs-578T it was 416 µM (inactive); in the test with KM-20L2, > 500 µM (inactive); with LXFL 529 it was > 800 µM (inactive); in the test with M19-MEL it was > 500 µM (inactive); in the test on MDA-MB-435 it was > 500 µM (inactive). Also, the GI50 with MDA-N was > 500 µM (inactive); in the test with NCI/ADR-RES it was > 500 µM (inactive); in the test with OVCAR-4, 479 µM (inactive); in the test on PC-3, 466 µM (inactive); in the test with SR, 313 µM (inactive); in the test with T47D, 418 µM (inactive). For the same compound, the GI50 was 486 µM (inactive) in the test with UACC-257 and 279 µM (inactive) in the test with XF498.

On to `Cn1c2c(c3ccccc31)CCN(CCCCN1CCCCC1)C2=O`, for which the GI50 was > 100 µM (inactive) in the test with 786-0; > 100 µM (inactive) in the test on CAKI-1; > 100 µM (inactive) in the test on DLD-1; > 100 µM (inactive) in the test on DMS-273; > 100 µM (inactive) in the test on EKVX; 84.5 µM (inactive) in the test with HCT-116. For the same compound, the GI50 in the test with KM-20L2 is > 100 µM (inactive); in the test with LXFL 529, > 100 µM (inactive); with M19-MEL, 60.1 µM (inactive); in the test with OVCAR-4, > 100 µM (inactive); in the test on UACC-257, 62.7 µM (inactive); in the test with XF498, > 100 µM (inactive).

As for `CN(C)CCSc1nccc(-c2ccc(-c3ccnc(SCCN(C)C)n3)s2)n1`, the GI50 in the test with CAKI-1 is 13.5 µM (inactive); with DLD-1, 4.81 µM (inactive); with DMS-273, 8.3 µM (inactive); with EKVX it was 18.2 µM (inactive); in the test with HCT-116 it was 3.33 µM (inactive); in the test with KM-20L2 it was 7.36 µM (inactive). Moreover, the GI50 with M19-MEL was 9.42 µM (inactive); in the test with NCI/ADR-RES it was 4.91 µM (inactive); in the test on OVCAR-4, 4.13 µM (inactive); in the test with UACC-257 it was 16.7 µM (inactive); in the test on XF498, 15.6 µM (inactive).

`O=C1OC(c2ccc(Cl)cc2)(c2ccc(Cl)cc2)c2c1ccc1ccccc21`: the GI50 with CAKI-1, in the test with DLD-1, in the test on DMS-273, in the test with EKVX, in the test on KM-20L2 and with LXFL 529 was > 100 µM (inactive) throughout. In addition, the GI50 in the test with M19-MEL, in the test with OVCAR-4, with UACC-257 and in the test on XF498 was > 100 µM (inactive) each time.

As for `CC1(C)C2CCC3(OCCO3)C1C(O)C2` (stereo not drawn), the GI50 in the test on 786-0, in the test with CAKI-1, in the test with DLD-1, in the test on DMS-273, with EKVX and in the test on HCT-116 was > 100 µM (inactive) throughout. For the same compound, the GI50 in the test with KM-20L2, in the test on LXFL 529, in the test on M19-MEL, in the test on OVCAR-4, in the test on UACC-257 and in the test with XF498 was > 100 µM (inactive) in each case.

`COc1ccc(N2C(=O)C3C=CC(n4[nH]c(=O)n(Cc5ccccc5)c4=O)CC3C2=O)cc1` (stereo not drawn): the GI50 with 786-0, in the test with CAKI-1, in the test with DLD-1, with DMS-273, in the test on EKVX and in the test on HCT-116 was > 100 µM (inactive) each time. Moreover, the GI50 in the test on KM-20L2, in the test on LXFL 529, with M19-MEL, in the test with UACC-257 and in the test with XF498 was > 100 µM (inactive) in each case.

Consider `NC1(C(=O)O)CCc2ccc(N(CCCl)CCCl)cc2C1` (stereo not drawn), for which the GI50 was > 100 µM (inactive) in the test on DLD-1; 38.8 µM (inactive) in the test with DMS-273; > 100 µM (inactive) in the test on EKVX; 0.01 µM (active) in the test on HCT-116; > 100 µM (inactive) in the test on KM-20L2; 85.5 µM (inactive) in the test with M19-MEL. The GI50 in the test with NCI/ADR-RES was > 100 µM (inactive); with OVCAR-4, > 100 µM (inactive); with UACC-257, > 100 µM (inactive); in the test on XF498, 43.1 µM (inactive).

For `CCOC1=C2N=C(Cc3ccc(F)cc3)NC2C(=O)c2ccccc21` (stereo not drawn), the GI50 with 786-0 was 20.8 µM (inactive); with DLD-1, 27 µM (inactive); with DMS-273 it was 9.71 µM (inactive); in the test on EKVX it was 23.2 µM (inactive); in the test with HCT-116 it was > 10 µM (inactive); with KM-20L2, 40.3 µM (inactive). Moreover, the GI50 is 25.5 µM (inactive) with LXFL 529, 9.44 µM (inactive) in the test with M19-MEL, 7.91 µM (inactive) in the test on UACC-257 and > 10 µM (inactive) with XF498.

For the compound `CC1=NC(C(=O)O)Cc2c1[nH]c1ccccc21` (stereo not drawn), the GI50 in the test on CAKI-1, in the test on DLD-1, with EKVX, in the test with KM-20L2, in the test with LXFL 529 and with M19-MEL was > 100 µM (inactive) each time. In addition, the GI50 in the test on XF498 is > 100 µM (inactive).

Regarding `Cc1cc2c(C(C)C)c(O)c(O)c(/C=N/c3ccccc3)c2c(O)c1-c1c(C)cc2c(C(C)C)c(O)c(O)c(/C=N/c3ccccc3)c2c1O`, the GI50 in the test with CAKI-1, with DLD-1, in the test with DMS-273, with EKVX, in the test on HCT-116 and in the test on KM-20L2 was > 100 µM (inactive) throughout. For the same compound, the GI50 in the test on LXFL 529, with M19-MEL, in the test on OVCAR-4, with SR and in the test on XF498 was > 100 µM (inactive) in each case.

As to `COC(=O)c1cccc(C(=O)OC)c1`, the GI50 with CAKI-1, with DLD-1, with DMS-273, with HCT-116, in the test on LXFL 529 and with OVCAR-4 was > 100 µM (inactive) in each case. The GI50 in the test with SR, in the test with UACC-257 and with XF498 was > 100 µM (inactive) in each case.

What is called GI50 is the concentration at which growth is held to half of that of the control.

These data come from ChEMBL document CHEMBL1201862, “PubChem BioAssay data set” (2004).
